# Measured values from patent publication US9120787B2, “HIV replication inhibitors” (priority 2011, dated 2015).
# pIC50: −log10 of the molar value.
# Key:
# [1] = Cytotoxicity by MTS staining in uninfected MAGI-CCR5 cells; format: cell-based; settings: human, read-out: TC50
# Method: The anti-viral activity of dihydropyrimidines was shown by inhibition of virus replication in MAGI-CCR5 cells. MAGI-CCR5 cells are derived from HeLa-CD4-LTR-β-galactosidase cells. The cells have been engineered to express high levels of CD4 and CCR5 and contain one copy of the HIV-1 LTR promoter driving expression of the β-galactosidase gene upon HIV-1 Tat transactivation. On the day preceding the assay, the cells were plated at 1.0×10^4 cells per well and maintained at 37° C. and 5% CO2 in a humidified incubator. Total cell count and viability was visually assessed using a hemacytometer and trypan blue exclusion. Compounds were evaluated at six concentrations (triplicate wells/concentration). On the day of assay setup, compound dilutions were prepared at two-times (2×) the final concentrations. Media was decanted and wells were replenished with 50 μl of 2× compounds, followed by the addition of 50 μl of diluted virus. Identical uninfected assays were prepared for parallel cytotoxicity testing.
# HIV-1Ba-L = test: Inhibition of virus replication in MAGI-CCR5 cells (β-galactosidase reporter); format: cell-based; settings: HIV-1Ba-L in MAGI-CCR5 cells; for pIC50: Human immunodeficiency virus 1, 48 hours, β-galactosidase reporter expression, read-out: IC50
# Method: The anti-viral activity of dihydropyrimidines was shown by inhibition of virus replication in MAGI-CCR5 cells. MAGI-CCR5 cells are derived from HeLa-CD4-LTR-β-galactosidase cells. The cells have been engineered to express high levels of CD4 and CCR5 and contain one copy of the HIV-1 LTR promoter driving expression of the β-galactosidase gene upon HIV-1 Tat transactivation. On the day preceding the assay, the cells were plated at 1.0×10^4 cells per well and maintained at 37° C. and 5% CO2 in a humidified incubator. Total cell count and viability was visually assessed using a hemacytometer and trypan blue exclusion.
# Compounds were evaluated at six concentrations (triplicate wells/concentration). On the day of assay setup, compound dilutions were prepared at two-times (2×) the final concentrations. Media was decanted and wells were replenished with 50 μl of 2× compounds, followed by the addition of 50 μl of diluted virus. Identical uninfected assays were prepared for parallel cytotoxicity testing.
# Evaluation of Dihydropyrimidines vs. HIV-1Ba-L in MAGI-CCR5 Cells
SMILES,CC50 at 48 h [1] [µM],TI (TC50/IC50) (HIV-1Ba-L),pIC50 (HIV-1Ba-L)
CC1=C(c2nc(-c3ccc(C#N)cc3)cs2)C(c2ccnc(Cl)c2)NC(=O)N1 (stereo not drawn) [Example 24],≥ 100,C (C < 50.0 to 10.0),4.00 to 5.30
CC1=C(c2nc(-c3ccc(C#N)cc3)cs2)C(c2cccc(OC(F)(F)F)c2)NC(=O)N1 (stereo not drawn) [Example 62],≥ 100,D (D < 10.0),4.00 to 5.30
COc1ncc(C2NC(=O)NC(C)=C2c2nc(-c3ccc(C#N)cc3)cs2)c(OC)n1 (stereo not drawn) [Example 32],≥ 100,D (D < 10.0),4.00 to 5.30
CC1=C(c2nc(-c3ccc(C#N)cc3)cs2)C(c2ccc(C#N)c(F)c2)NC(=O)N1 (stereo not drawn) [Example 57],≥ 100,C (C < 50.0 to 10.0),4.00 to 5.30
CC1=C(c2nc(-c3ccc(C#N)cc3)cs2)C(c2ccc3ccccc3n2)NC(=O)N1 (stereo not drawn) [Example 6],≥ 100,C (C < 50.0 to 10.0),5.30 to 6.00
CC1=C(c2nc(-c3ccc([N+](=O)[O-])cc3)cs2)C(c2cccc(O)c2)NC(=O)N1 (stereo not drawn) [Example 76],≥ 100,A (A = TI (TC50/IC50) ≧ 100.0),> 6.00
CC1=C(c2nc(-c3ccc(C#N)cc3)cs2)C(c2cc(=O)[nH]c(=O)[nH]2)NC(=O)N1 (stereo not drawn) [Example 22],≥ 100,D (D < 10.0),< 4.00
CC1=C(c2nc(-c3ccc(C#N)cc3)cs2)C(c2ccc(OCc3ccccc3)cc2)NC(=O)N1 (stereo not drawn) [Example 52],≥ 100,C (C < 50.0 to 10.0),5.30 to 6.00
CC1=C(c2nc(-c3ccc(C#N)cc3)cs2)C(c2cc(Br)cs2)NC(=O)N1 (stereo not drawn) [Example 13],≥ 100,D (D < 10.0),4.00 to 5.30
CC1=C(c2nc(-c3ccc(C(F)(F)F)cc3)cs2)C(c2cccc(O)c2)NC(=O)N1 (stereo not drawn) [Example 75],< 50,D (D < 10.0),4.00 to 5.30
CC1=C(c2nc(-c3cccs3)cs2)C(c2cccc(O)c2)NC(=O)N1 (stereo not drawn) [Example 37],≥ 100,D (D < 10.0),4.00 to 5.30
CC1=C(c2nc(-c3ccc(C#N)cc3)cs2)C(c2ccc(O)c(O)c2)NC(=O)N1 (stereo not drawn) [Example 79],≥ 100,A (A = TI (TC50/IC50) ≧ 100.0),> 6.00
CC1=C(c2nc(-c3ccc(C#N)cc3)cs2)C(c2ccc(-c3ccccc3)cc2)NC(=O)N1 (stereo not drawn) [Example 58],≥ 100,C (C < 50.0 to 10.0),5.30 to 6.00
CC1=C(c2nc(-c3ccc(F)cc3)cs2)C(Cc2ccc(C)cc2)NC(=O)N1 (stereo not drawn) [Example 95],≥ 100,D (D < 10.0),< 4.00
CC1=C(c2nc(-c3ccc(C#N)cc3)cs2)C(c2cccc(Cl)c2)NC(=O)N1 (stereo not drawn) [Example 51],≥ 100,C (C < 50.0 to 10.0),4.00 to 5.30
CC1=C(c2nc(-c3ccc(C#N)cc3)cs2)C(c2cc(C(F)(F)F)cc(C(F)(F)F)c2)NC(=O)N1 (stereo not drawn) [Example 77],≥ 100,D (D < 10.0),< 4.00
CC1=C(c2nc(-c3ccc(C#N)cc3)cs2)C(Cc2ccccc2)NC(=O)N1 (stereo not drawn) [Example 88],≥ 100,C (C < 50.0 to 10.0),5.30 to 6.00
CC1=C(c2nc(-c3ccc(C#N)cc3)cs2)C(c2ccc(OC(F)(F)F)cc2)NC(=O)N1 (stereo not drawn) [Example 63],≥ 100,D (D < 10.0),4.00 to 5.30
